Values quoted from earlier work, collected in patent US20250152987A1 (priority 2022, published 2025).

System: SARS CoV-2 virus

SMILES: CN(C)c1ccc2nc3ccc(=[N+](C)C)cc-3sc2c1 [methylene blue]
- inactivation of SARS CoV-2 virus: inactivation
